Our source for the IC50 values is patent publication US8604218B2, “Cytoskeletal active rho kinase inhibitor compounds, composition and use” (Inspire Pharmaceuticals, Inc., priority 2006, dated 2013).

Sequence of ROCK2 (O75116 11-552): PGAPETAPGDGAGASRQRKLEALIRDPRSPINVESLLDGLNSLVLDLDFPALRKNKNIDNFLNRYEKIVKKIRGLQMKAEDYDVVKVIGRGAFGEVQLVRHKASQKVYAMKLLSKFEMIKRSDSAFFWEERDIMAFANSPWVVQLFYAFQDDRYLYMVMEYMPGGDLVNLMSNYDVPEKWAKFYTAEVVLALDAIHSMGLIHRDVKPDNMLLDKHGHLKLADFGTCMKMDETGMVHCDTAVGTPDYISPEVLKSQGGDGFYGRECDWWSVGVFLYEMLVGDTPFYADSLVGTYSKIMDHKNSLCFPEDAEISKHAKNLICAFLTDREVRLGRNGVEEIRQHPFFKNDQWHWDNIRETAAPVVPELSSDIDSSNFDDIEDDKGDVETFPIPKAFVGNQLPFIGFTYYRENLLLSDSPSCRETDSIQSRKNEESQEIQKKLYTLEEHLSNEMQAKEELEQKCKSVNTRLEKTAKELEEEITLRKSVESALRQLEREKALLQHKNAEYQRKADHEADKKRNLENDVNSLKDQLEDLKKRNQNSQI

The experiment deals with ROCK2 (Homo sapiens (Human), UniProt O75116). Nature of the experiment: Rho Kinase Inhibition Assay (IMAP fluorescence polarization). The format is biochemical. The following applies: isolated enzyme, 10 μM ATP, 60 minutes at room temperature. Here is the method:
Following the preincubation, 10 μM ATP was added to initiate the reaction. After 60 minutes at room temperature, Molecular Devices IMAP™ binding solution was added to bind phosphorylated substrate. After 30 minutes of incubation in the presence of the IMAP™ beads the fluorescence polarization was read and the ratio was reported as mP. IC50 results were calculated using the Prism software from Graphpad.
See Tian et al., Arch. Ophthalmol. […] Ophthalmol. Vis. […] Ophthalmol. […] Cytoskel. […] Ophthalmol. Vis. […] Ophthalmol. Vis.
The compound `OCCOc1cccc(CN2CCC[C@@H](Nc3ccc4[nH]ncc4c3)C2)c1` [Compound 1.092, (R)-2-(3-((3-(1H-indazol-5-ylamino)piperidin-1-yl)methyl)phenoxy)ethanol] had an IC50 of 0.406 µM.
As for `CS(=O)(=O)Nc1cccc(CN2CCC[C@@H](Nc3ccc4[nH]ncc4c3)C2)c1` [Compound 1.093, (R)-N-(3-((3-(1H-indazol-5-ylamino)piperidin-1-yl)methyl)phenyl)methanesulfonamide], the figure is 0.101 µM.
The figure for `OCCOc1cccc(CN2CC[C@H](Nc3ccc4[nH]ncc4c3)C2)c1` [Compound 1.094, (S)-2-(3-((3-(1H-indazol-5-ylamino)pyrrolidin-1-yl)methyl)phenoxy)ethanol] is 0.466 µM; for `CS(=O)(=O)Nc1cccc(CN2CC[C@H](Nc3ccc4[nH]ncc4c3)C2)c1` [Compound 1.095, (S)-N-(3-((3-(1H-indazol-5-ylamino)pyrrolidin-1-yl)methyl)phenyl)methanesulfonamide] it is 0.647 µM; for `OCCOc1cccc(CN2CC[C@@H](Nc3ccc4[nH]ncc4c3)C2)c1` [Compound 1.096, (R)-2-(3-((3-(1H-indazol-5-ylamino)pyrrolidin-1-yl)methyl)phenoxy)ethanol] it is 1.3 µM.
As for `CS(=O)(=O)Nc1cccc(CN2CC[C@@H](Nc3ccc4[nH]ncc4c3)C2)c1` [Compound 1.097, (R)-N-(3-((3-(1H-indazol-5-ylamino)pyrrolidin-1-yl)methyl)phenyl)methanesulfonamide], the figure is 0.276 µM; as for `NC(=O)COc1cccc(CN2CCCC(Nc3ccc4[nH]ncc4c3)C2)c1` (stereo not drawn) [Compound 1.098, 2-(3-((3-(1H-indazol-5-ylamino)piperidin-1-yl)methyl)phenoxy)acetamide], 0.25 µM; as for `NC(=O)Cn1ccc2ccc(CN3CCCC(Nc4ccc5[nH]ncc5c4)C3)cc21` (stereo not drawn) [Compound 1.099, 2-(6-((3-(1H-indazol-5-ylamino)piperidin-1-yl)methyl)-1H-indol-1-yl)acetamide], 0.0258 µM.
`c1cc2cc(CN3CCCC(Nc4ccc5[nH]ncc5c4)C3)ccc2[nH]1` (stereo not drawn) [Compound 1.100, N-(1-((1H-indol-5-yl)methyl)piperidin-3-yl)-1H-indazol-5-amine] showed a 50% inhibitory concentration (IC50) of 0.0429 µM. This IC50 lies about 1.7-fold higher than the previous one.
The figure for `OCCn1ccc2ccc(CN3CCCC(Nc4ccc5[nH]ncc5c4)C3)cc21` (stereo not drawn) [Compound 1.101, 2-(6-((3-(1H-indazol-5-ylamino)piperidin-1-yl)methyl)-1H-indol-1-yl)ethanol] is 0.0685 µM; for `CS(=O)(=O)Nc1cc(CN2CCCC(Nc3ccc4[nH]ncc4c3)C2)ccc1Cl` (stereo not drawn) [Compound 1.102, N-(5-((3-(1H-indazol-5-ylamino)piperidin-1-yl)methyl)-2-chlorophenyl)methanesulfonamide] it is 0.0343 µM; for `OCCN1CCc2ccc(CN3CCCC(Nc4ccc5[nH]ncc5c4)C3)cc21` (stereo not drawn) [Compound 1.104, 2-(6-((3-(1H-indazol-5-ylamino)piperidin-1-yl)methyl)indolin-1-yl)ethanol] it is 0.107 µM.
The figure for `NC(=O)Cn1ccc2cc(CN3CCCC(Nc4ccc5[nH]ncc5c4)C3)ccc21` (stereo not drawn) [Compound 1.105, 2-(5-((3-(1H-indazol-5-ylamino)piperidin-1-yl)methyl)-1H-indol-1-yl)acetamide] is 0.172 µM.
The figure for `NC(=O)Cn1ccc2ccc(CN3CCC[C@@H](Nc4ccc5[nH]ncc5c4)C3)cc21` [Compound 1.106, (R)-2-(6-((3-(1H-indazol-5-ylamino)piperidin-1-yl)methyl)-1H-indol-1-yl)acetamide] is 0.0692 µM; for `NC(=O)Cn1ccc2ccc(CN3CCC[C@H](Nc4ccc5[nH]ncc5c4)C3)cc21` [Compound 1.107, (S)-2-(6-((3-(1H-indazol-5-ylamino)piperidin-1-yl)methyl)-1H-indol-1-yl)acetamide] it is 0.148 µM; for `OCCn1ccc2ccc(CN3CCC[C@@H](Nc4ccc5[nH]ncc5c4)C3)cc21` [Compound 1.108, (R)-2-(6-((3-(1H-indazol-5-ylamino)piperidin-1-yl)methyl)-1H-indol-1-yl)ethanol] it is 0.367 µM.
`OCCn1ccc2ccc(CN3CCC[C@H](Nc4ccc5[nH]ncc5c4)C3)cc21` [Compound 1.109, (S)-2-(6-((3-(1H-indazol-5-ylamino)piperidin-1-yl)methyl)-1H-indol-1-yl)ethanol]: the IC50 is 0.242 µM.
`CC(=O)NCCOc1cccc(CN2CCCC(Nc3ccc4[nH]ncc4c3)C2)c1` (stereo not drawn) [Compound 1.111, N-(2-(3-((3-(1H-indazol-5-ylamino)piperidin-1-yl)methyl)phenoxy)ethyl)acetamide]: it took 0.591 µM to reach half-maximal inhibition (IC50).
In the case of `CC(C)(C)OC(=O)Cn1ccc2cc(CN3CCCC(Nc4ccc5[nH]ncc5c4)C3)ccc21` (stereo not drawn) [Compound 1.112, tert-butyl 2-(5-((3-(1H-indazol-5-ylamino)piperidin-1-yl)methyl)-1H-indol-1-yl)acetate], it took 2.03 µM to reach half-maximal inhibition (IC50).
The figure for `OC[C@H](O)COc1cccc(CN2CCC[C@@H](Nc3ccc4[nH]ncc4c3)C2)c1` [Compound 1.113, (S)-3-(3-(((R)-3-(1H-indazol-5-ylamino)piperidin-1-yl)methyl)phenoxy)propane-1,2-diol] is 0.859 µM; for `OCCn1ccc2cc(CN3CCCC(Nc4ccc5[nH]ncc5c4)C3)ccc21` (stereo not drawn) [Compound 1.114, 2-(5-((3-(1H-indazol-5-ylamino)piperidin-1-yl)methyl)-1H-indol-1-yl)ethanol] it is 1.49 µM; for `OC[C@@H](O)COc1cccc(CN2CCC[C@@H](Nc3ccc4[nH]ncc4c3)C2)c1` [Compound 1.115, (R)-3-(3-(((R)-3-(1H-indazol-5-ylamino)piperidin-1-yl)methyl)phenoxy)propane-1,2-diol] it is 0.555 µM.
As for `C[C@@H](O)COc1cccc(CN2CCC[C@@H](Nc3ccc4[nH]ncc4c3)C2)c1` [Compound 1.116, (R)-1-(3-(((R)-3-(1H-indazol-5-ylamino)piperidin-1-yl)methyl)phenoxy)propan-2-ol], the figure is 0.862 µM; as for `C[C@@H](O)COc1cccc(CN2CCC[C@H](Nc3ccc4[nH]ncc4c3)C2)c1` [Compound 1.118, (R)-1-(3-(((S)-3-(1H-indazol-5-ylamino)piperidin-1-yl)methyl)phenoxy)propan-2-ol], 1.4 µM; as for `O=C(O)Cn1ccc2cc(CN3CCCC(Nc4ccc5[nH]ncc5c4)C3)ccc21` (stereo not drawn) [Compound 1.119, 2-(5-((3-(1H-indazol-5-ylamino)piperidin-1-yl)methyl)-1H-indol-1-yl)acetic acid], 3.63 µM.
`CCS(=O)(=O)Nc1cccc(CN2CCCC(Nc3ccc4[nH]ncc4c3)C2)c1` (stereo not drawn) [Compound 1.120, N-(3-((3-(1H-indazol-5-ylamino)piperidin-1-yl)methyl)phenyl)ethanesulfonamide] returned a half-inhibitory concentration (IC50) of 0.109 µM. Compared with the last compound, the IC50 is about 33-fold lower.
`CN(c1cccc(CN2CCCC(Nc3ccc4[nH]ncc4c3)C2)c1)S(C)(=O)=O` (stereo not drawn) [Compound 1.121, N-(3-((3-(1H-indazol-5-ylamino)piperidin-1-yl)methyl)phenyl)-N-methylmethanesulfonamide]: the IC50 worked out at 0.578 µM. Compared with the last compound, the IC50 is about 5.3-fold higher.
As for `CC(=O)NCc1cccc(CN2CCCC(Nc3ccc4[nH]ncc4c3)C2)c1` (stereo not drawn) [Compound 1.122, N-(3-((3-(1H-indazol-5-ylamino)piperidin-1-yl)methyl)benzyl)acetamide], the figure is 0.254 µM.
The compound `CCS(=O)(=O)Nc1cccc(CN2CCC[C@@H](Nc3ccc4[nH]ncc4c3)C2)c1` [Compound 1.123, (R)-N-(3-((3-(1H-indazol-5-ylamino)piperidin-1-yl)methyl)phenyl)ethanesulfonamide] displayed an IC50 of 0.135 µM. This IC50 is about 1.9-fold lower than that of the compound before.
`CCS(=O)(=O)Nc1cccc(CN2CCC[C@H](Nc3ccc4[nH]ncc4c3)C2)c1` [Compound 1.124, (S)-N-(3-((3-(1H-indazol-5-ylamino)piperidin-1-yl)methyl)phenyl)ethanesulfonamide]: half-maximal inhibition (IC50) was put at 0.0592 µM.
The figure for `O=C(O)COc1cccc(CN2CCC[C@@H](Nc3ccc4[nH]ncc4c3)C2)c1` [Compound 1.125, (R)-2-(3-((3-(1H-indazol-5-ylamino)piperidin-1-yl)methyl)phenoxy)acetic acid] is 0.879 µM; for `OCCOc1cccc(CN2CCC(Nc3ccc4[nH]ncc4c3)CC2)c1` [Compound 1.130, 2-(3-((4-(1H-indazol-5-ylamino)piperidin-1-yl)methyl)phenoxy)ethanol] it is 2.71 µM.
In the case of `COc1ccc(CN2CCCC(Nc3cccc4cnccc34)C2)cc1` (stereo not drawn) [Compound 2.001, N-(1-(4-methoxybenzyl)piperidin-3-yl)isoquinolin-5-amine], the IC50 came out at 0.0988 µM.
The figure for `N#Cc1cccc(CN2CCCC(Nc3cccc4cnccc34)C2)c1` (stereo not drawn) [Compound 2.003, 3-((3-(isoquinolin-5-ylamino)piperidin-1-yl)methyl)benzonitrile] is 5.72 µM; for `CC(=O)Nc1ccc(CN2CCCC(Nc3cccc4cnccc34)C2)cc1` (stereo not drawn) [Compound 2.004, N-(4-((3-(isoquinolin-5-ylamino)piperidin-1-yl)methyl)phenyl)acetamide] it is 3.71 µM.
As for `CS(=O)(=O)c1ccc(CN2CCC(Nc3cccc4cnccc34)C2)cc1` (stereo not drawn) [Compound 2.005, N-(1-(4-(methylsulfonyl)benzyl)pyrrolidin-3-yl)isoquinolin-5-amine], the figure is 1.78 µM; as for `c1ccc(CN2CCC(Nc3cccc4cnccc34)C2)cc1` (stereo not drawn) [Compound 2.006, N-(1-benzylpyrrolidin-3-yl)isoquinolin-5-amine], 0.0739 µM.
As for `N#Cc1cccc(CN2CCC(Nc3cccc4cnccc34)C2)c1` (stereo not drawn) [Compound 2.007, 3-((3-(isoquinolin-5-ylamino)pyrrolidin-1-yl)methyl)benzonitrile], the figure is 3.62 µM; as for `CSc1ccc(CN2CCCC(Nc3cccc4cnccc34)C2)cc1` (stereo not drawn) [Compound 2.009, N-(1-(4-(methylthio)benzyl)piperidin-3-yl)isoquinolin-5-amine], 0.368 µM.
